The data set in a line: Hydrolytic stability of activated side chains (hydrolysis at pH ~10.3, UPLC/HPLC area comparison at 210 nm). It counts as physicochemical. Particulars: for hydrolytic stability (in words): basic conditions, pH 10.3; for activated side chain still remaining: pH 10.3, hydrolysis times around 1100-1300 minutes. On the procedure: 0.1 mmol of each activated side chain was dissolved in 1.0 mL NMP. To this solution was added 5 mL 1M NaHCO3 buffer solution adjusted to pH 10.0 with NaOH. Solution was stirred (pH ˜10.3) with aliquots being taken at different time intervals to determine to which extent the various activated side chains were hydrolysed.
The reaction mixtures were analysed by UPLC (Example no. 2 and E—UPLC_A_1) and HPLC (Example no. 1, B, C, and D—HPLC_A_1), and the percent of hydrolysis for the various side chains was estimated by area comparison in UV detection at 210 nm. In each example, the combined areas for released activation group (peak A) and non-activated side chain (peak B), was compared to area for activated side chain (peak C). The retention times (rt-A, rt-B, and rt-C for the various peaks (peak A, peak B, and peak C) for each side chain are summarised as follows; 1 (rt-A=1.94 min, rt-B=7.18-7.25 min, rt-C=7.48 min, HPLC_A_1), 2 (rt-A=0.48 min, rt-B=2.11 min, rt-C=2.29 min, UPLC_A_1), B (only rt-B detected at time point for analysis), C (rt-A=4.40 min, rt-B=7.25 min, HPLC_A_1), D (rt-A=4.01 min, rt-B=7.25 min, rt-C=10.16 min, HPLC_A_1), E (rt-A=2.08 min, rt-B=2.10 min, rt-C=2.10 min, UPLC_A_1).
The hydrolytic stability of the activated side chains of Examples 1 and 8B to 8D was tested. The hydrolysis protocol from Example 9 was used for the stability test.

Setting [1] is: Table 5, hydrolysis time 1380 min, method UPLC_A_4.

As for `O=C(O)CCCCCCCCCCCCCCCCCCC(=O)NC[C@H]1CC[C@H](C(=O)N[C@@H](CCC(=O)NCCOCCOCC(=O)NCCOCCOCC(=O)Oc2c(Cl)cc(Cl)cc2S(=O)(=O)O)C(=O)O)CC1` [Example 1, 20-[[4-[[(1S)-1-carboxy-4-[2-[2-[2-[2-[2-[2-(2,4-dichloro-6-sulfo-phenoxy)-2-oxo-ethoxy]ethoxy]ethylamino]-2-oxo-ethoxy]ethoxy]ethylamino]-4-oxo-butyl]carbamoyl]cyclohexyl]methylamino]-20-oxo-icosanoic acid], the “hydrolytic stability (in words)” value is reported as “much more stable against hydrolysis” and the “activated side chain still remaining” value is given as “approximately 12%”. Also, for the setting “Table 5, hydrolysis time 1269 min, method UPLC_A_1”, the “Hydrolysis (%) at pH 10.3” value was 88.1%. Also, under “hydrolysis time 1269 min, NMP + 1M NaHCO3 buffer, pH ~10.3, HPLC_A_1”, the “Hydrolysis (%) at pH 10.3” value is given as 88.1%.

Take `O=C(O)CCCCCCCCCCCCCCCCC(=O)N[C@@H](CCC(=O)NCCOCCOCC(=O)NCCOCCOCC(=O)Oc1c(Cl)cc(Cl)cc1S(=O)(=O)O)C(=O)O` [Example 2, 18-[[(1S)-1-carboxy-4-[2-[2-[2-[2-[2-[2-(2,4-dichloro-6-sulfo-phenoxy)-2-oxo-ethoxy]ethoxy]ethylamino]-2-oxo-ethoxy]ethoxy]ethylamino]-4-oxo-butyl]amino]-18-oxo-octadecanoic acid]: the “hydrolytic stability (in words)” value is on record as “much more stable against hydrolysis” and the “activated side chain still remaining” value is on record as “approximately 12%”. Also, the “Hydrolysis (%) at pH 10.3” value (hydrolysis time 1070 min, NMP + 1M NaHCO3 buffer, pH ~10.3, UPLC_A_1) was determined as 88.1%.

For `COCC(=O)Oc1c(Cl)cc(Cl)cc1S(=O)(=O)O` [Example 8B, 3,5-dichloro-2-(2-methoxyacetyl)oxy-benzenesulfonic acid], under setting [1], the “Hydrolysis (%) at pH 10.3” value stood at 96%.

For the compound `CN(C)S(=O)(=O)c1cc(Cl)cc(Cl)c1OC(=O)COCCOCCNC(=O)COCCOCCNC(=O)CC[C@H](NC(=O)CCCCCCCCCCCCCCCCC(=O)O)C(=O)O` [Example 8C], the “Hydrolysis (%) at pH 10.3” value under setting [1] is on record as 60%.

For `C#CCOCCOCCOCCOCCC(=O)Oc1c(Cl)cc(Cl)cc1S(=O)(=O)O` [Example 8D, 3,5-dichloro-2-[3-[2-[2-(2-prop-2-ynoxyethoxy)ethoxy]ethoxy]propanoyloxy]benzenesulfonic acid], for the setting “Table 5, hydrolysis time 1440 min, method UPLC_A_5”, the “Hydrolysis (%) at pH 10.3” value was 67%.

For the compound `O=C(O)CCCCCCCCCCCCCCCCCCC(=O)NC[C@H]1CC[C@H](C(=O)N[C@@H](CCC(=O)NCCOCCOCC(=O)NCCOCCOCC(=O)ON2C(=O)CCC2=O)C(=O)O)CC1` [Example B, 20-[[4-[[(1S)-1-carboxy-4-[2-[2-[2-[2-[2-[2-(2,5-dioxopyrrolidin-1-yl)oxy-2-oxo-ethoxy]ethoxy]ethylamino]-2-oxo-ethoxy]ethoxy]ethylamino]-4-oxo-butyl]carbamoyl]cyclohexyl]methylamino]-20-oxo-icosanoic acid, reference compound], the “hydrolytic stability (in words)” value is recorded as “hydrolytically very unstable”. Under “hydrolysis time 0 min (within a minute), NMP + 1M NaHCO3 buffer, pH ~10.3, HPLC_A_1”, the “Hydrolysis (%) at pH 10.3” value was “Quantitative (more than 99% of the side chain being hydrolysed)”.

Take `O=C(O)CCCCCCCCCCCCCCCCCCC(=O)NC[C@H]1CC[C@H](C(=O)N[C@@H](CCC(=O)NCCOCCOCC(=O)NCCOCCOCC(=O)Oc2ccc(Cl)cc2Cl)C(=O)O)CC1` [Example C, 20-[[4-[[(1S)-1-carboxy-4-[2-[2-[2-[2-[2-[2-(2,4-dichlorophenoxy)-2-oxo-ethoxy]ethoxy]ethylamino]-2-oxo-ethoxy]ethoxy]ethylamino]-4-oxo-butyl]carbamoyl]cyclohexyl]methylamino]-20-oxo-icosanoic acid, reference compound]: the “hydrolytic stability (in words)” value was “hydrolyse very fast and almost quantitatively”. Further, the “Hydrolysis (%) at pH 10.3” value (hydrolysis time 0.16 min, NMP + 1M NaHCO3 buffer, pH ~10.3, HPLC_A_1) is on record as “Quantitative (more than 99% of the side chain being hydrolysed)”.

Consider `O=C(O)CCCCCCCCCCCCCCCCCCC(=O)NC[C@H]1CC[C@H](C(=O)N[C@@H](CCC(=O)NCCOCCOCC(=O)NCCOCCOCC(=O)Oc2c(Cl)cccc2Cl)C(=O)O)CC1` [Example D, 20-[[4-[[(1S)-1-carboxy-4-[2-[2-[2-[2-[2-[2-(2,6-dichlorophenoxy)-2-oxo-ethoxy]ethoxy]ethylamino]-2-oxo-ethoxy]ethoxy]ethylamino]-4-oxo-butyl]carbamoyl]cyclohexyl]methylamino]-20-oxo-icosanoic acid, reference compound], for which the “hydrolytic stability (in words)” value is “hydrolyse very fast and almost quantitatively”. Moreover, the “Hydrolysis (%) at pH 10.3” value (hydrolysis time 2 min, NMP + 1M NaHCO3 buffer, pH ~10.3, HPLC_A_1) came out at 93.4%.

On to `O=C(O)CCCCCCCCCCCCCCCCC(=O)N[C@@H](CCC(=O)NCCOCCOCC(=O)NCCOCCOCC(=O)Oc1c(Cl)cc(S(=O)(=O)O)cc1Cl)C(=O)O` [Example E, 18-[[(1S)-1-carboxy-4-[2-[2-[2-[2-[2-[2-(2,6-dichloro-4-sulfo-phenoxy)-2-oxo-ethoxy]ethoxy]ethylamino]-2-oxo-ethoxy]ethoxy]ethylamino]-4-oxo-butyl]amino]-18-oxo-octadecanoic acid, reference compound], for which, where the note is “hydrolysis time 2.5 min, NMP + 1M NaHCO3 buffer, pH ~10.3, UPLC_A_1”, the “Hydrolysis (%) at pH 10.3” value was “Quantitative (more than 99% of the side chain being hydrolysed)”.

The values above are taken from patent publication US11787837B2, “DCHBS-active esters of PEG compounds and their use” (Novo Nordisk A/S, priority 2016, dated 2023).
